Measurements as given in patent publication US20180168208A1 (priority 2014, published 2018).
Structures can show the parent of a compound that is named as a salt.

Key:
[1] = molecular target: T1R1/T1R3 receptor (Felis catus, UniProt E3UMS2); assay: cell-based
Excerpt: (§1) HEK293 cells that stably express T1R3 and inducibly express T1R1 were exposed to nucleotide derivatives alone to activate the umami receptor. Activation of the T1R1/T1R3 receptor was detected by a change in intracellular calcium levels using a calcium sensitive fluorescent dye. Cells that express T1R3 but not T1R1 were used as a control. A FLIPR® Tetra or a FlexStation® 3 was used for data capture.
as §1, with “alone or in combination with one or more amino acids and/or one or more nucleotides” for “alone”, “dye and/or a luminescent reporter system.” for “dye.”
as §1, with “transmembrane compounds” for “nucleotide derivatives”, “alone or in combination with one or more amino acids and/or one or more nucleotides” for “alone”
In each experiment, serial dilutions of up to 10 mM of the transmembrane compound were added to the T1R1/T1R3-expressing cells.

[2] = molecular target: T1, cat T1R1/T1R3 receptor (Felis catus, UniProt A0ABI7Z2I4); assay: cell-based; conditions: for function as activators of T1R1/T1R3 (in words): in the presence of alanine
T1 sequence (A0ABI7Z2I4 171-420): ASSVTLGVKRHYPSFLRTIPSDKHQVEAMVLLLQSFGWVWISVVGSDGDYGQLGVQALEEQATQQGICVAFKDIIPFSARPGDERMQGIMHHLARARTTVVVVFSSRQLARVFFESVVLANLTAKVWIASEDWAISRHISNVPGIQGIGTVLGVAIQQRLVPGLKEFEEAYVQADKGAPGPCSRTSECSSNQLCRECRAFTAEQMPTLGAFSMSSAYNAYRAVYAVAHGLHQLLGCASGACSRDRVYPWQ
T1 sequence (Q49KI5 25-865 E206Q/N523D/F654L partner): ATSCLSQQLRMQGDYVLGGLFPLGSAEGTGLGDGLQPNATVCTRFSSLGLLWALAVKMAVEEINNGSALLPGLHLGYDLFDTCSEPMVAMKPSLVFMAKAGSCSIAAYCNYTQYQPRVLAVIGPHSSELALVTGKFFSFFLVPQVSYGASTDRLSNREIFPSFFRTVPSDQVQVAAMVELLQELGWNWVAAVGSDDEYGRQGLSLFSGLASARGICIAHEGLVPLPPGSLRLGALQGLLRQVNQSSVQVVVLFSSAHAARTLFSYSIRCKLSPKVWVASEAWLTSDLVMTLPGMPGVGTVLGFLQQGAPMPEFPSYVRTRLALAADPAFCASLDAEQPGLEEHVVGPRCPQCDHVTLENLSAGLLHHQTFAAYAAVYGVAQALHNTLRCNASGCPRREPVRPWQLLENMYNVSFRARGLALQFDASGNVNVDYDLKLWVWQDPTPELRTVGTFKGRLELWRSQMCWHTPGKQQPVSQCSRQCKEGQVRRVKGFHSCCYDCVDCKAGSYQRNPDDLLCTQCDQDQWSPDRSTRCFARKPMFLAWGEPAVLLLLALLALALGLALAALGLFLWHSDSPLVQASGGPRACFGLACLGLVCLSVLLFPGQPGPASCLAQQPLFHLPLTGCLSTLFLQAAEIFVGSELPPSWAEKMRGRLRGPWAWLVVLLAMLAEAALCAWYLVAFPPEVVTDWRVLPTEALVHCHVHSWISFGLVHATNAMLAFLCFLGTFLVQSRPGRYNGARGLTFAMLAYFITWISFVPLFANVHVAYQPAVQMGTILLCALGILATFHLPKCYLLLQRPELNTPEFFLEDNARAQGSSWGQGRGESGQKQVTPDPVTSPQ
Excerpt: as §1, with “alone or in combination with one or more amino acids and/or one or more nucleotides” for “alone”, “dye and/or a luminescent reporter system.” for “dye.”

| Molecule | Activity [2] | Threshold [2] | further results |
| --- | --- | --- | --- |
| CCOC(=O)NC(=O)C(c1ccccc1)c1ccccc1 [Ro 01-6128, reference compound] |  |  | Max resp % of IMP, +Alanine (20 mM) [1]: 74.8%; Thres (mM), +Alanine (20 mM) [1]: 0.3 mM; Max resp % of Ala, +IMP (0.2 mM) ([1]; in the presence of 0.2 mM IMP, relative to alanine): 199.7%; Activity ([1]; overall call: active or N/A (not active) on T1R1/T1R3): active; Thres (mM), +IMP (0.2 mM) ([1]; threshold concentration in the presence of 0.2 mM IMP): 0.01 mM |
| CNc1ccccc1C(=O)OC1C[C@H](n2cnc3c(=O)[nH]c(N)nc32)O[C@@H]1COP(=O)(O)O (stereo partly drawn) [2′-Deoxy-3′-O-(N′-methylanthraniloyl) guanosine-5′-O-monophosphate] | active | 0.0025 mM | Max resp. (ΔF/F) [2]: 0.295 ΔF/F; Max. resp. % of IMP [2]: 23.7 % of IMP; function as activators of T1R1/T1R3 (in words) [2]: activators of T1R1/T1R3 |
| O=P(O)(O)OP(=O)(O)OP(=O)(O)OC[C@H]1O[C@@H](n2cnc3c(O)ncnc32)[C@H](O)[C@@H]1O [inosine triphosphate (ITP), inosine triphosphate] |  |  | EC50 [2]: 80 µM |
| CNc1ncnc2c1ncn2[C@H]1C[C@H](OP(=O)(O)O)[C@@H](COP(=O)(O)O)O1 [MRS 2179 ammonium salt hydrate, 2′-Deoxy-N^6-methyl adenosine 3,5′-diphosphate diammonium salt] | active |  |  |
| NC(=O)c1ncn(C2OC(COP(=O)(O)O)C(O)C2O)n1 (stereo not drawn) [Ribavirin 5′-Monophosphate] | active | 0.175 mM |  |
| O=c1[nH]c(=O)c2ncn([C@@H]3O[C@H](COP(=O)(O)O)[C@@H](O)[C@H]3O)c2[nH]1 [xanthosine monophosphate] | active | 0.025 mM |  |
| 2′-, 3′-O—(N′-methylanthraniloyl)guanosine-5′-O-monophosphate |  |  | function as activators of T1R1/T1R3 (in words) [2]: activators of T1R1/T1R3 |
| O=c1[nH]cnc2c1ncn2C1CC(O)C(COP(O)(O)=S)O1 (stereo not drawn) [2′-Deoxyinosine-5′-O-monophosphorothioate] | active | 0.025 mM |  |
| Nc1nc2c(ncn2[C@@H]2O[C@H](COP(=O)(O)O)[C@@H](O)[C@H]2O)c(=S)[nH]1 [6-Thiogaunosine-5′-O-monophosphate] |  |  | Max resp. (ΔF/F) [2]: 1.3614 ΔF/F; Max. resp. % of IMP [2]: 140.6 % of IMP |
| Nc1nc2c(ncn2[C@@H]2O[C@H](COP(=O)(O)OP(=O)(O)O)[C@@H](O)[C@H]2O)c(=O)[nH]1 [Guanosine 5′-diphosphate sodium salt, Guanosine 5′-diphosphate] | active | 0.050 mM | EC50 [2]: 200 µM |
| O=P(O)(O)OC[C@H]1O[C@@H](n2cnc3c(NC4CCCC4)ncnc32)[C@H](O)[C@@H]1O [N6-Cyclopentyladenosine-5′-O-monophosphate] | active | 0.013 mM |  |
| CNc1ncnc2c1ncn2[C@H]1C[C@H](OP(=O)(O)O)[C@@H](COP(=O)(O)O)O1 |  | 0.013 mM | Max resp. (ΔF/F) [2]: 1.8150 ΔF/F; Max. resp. % of IMP [2]: 146.1 % of IMP |
| Nc1nc2c(ncn2[C@@H]2O[C@H](COP(=O)(O)O)[C@@H](O)[C@H]2O)c(=S)[nH]1 [6-Thioguanosine-5′-O-monophosphate] | active |  |  |
